Series [1] can be described thus: pH-potentiometric titrations: proton dissociation constants of the ligands and overall stability constants of their In(III) complexes. The note with it: pH-pot, T = 25.0 °C, I = 0.20 M (KCl); for logβ [InL2] / logβ [InL3] / logβ [InL]: In(III) complex of the ligand L; for pKa: water. The series is classed as physicochemical. How it is done: (§1) To characterize the solution stability of the In(III) complexes, pH-potentiometric and UV–vis spectrophotometric titrations were performed in water in the presence of 0.20 M chloride ions. However, stability constants for the HQ complexes could be obtained only by the latter method due to their much worse water solubility compared to the other compounds. HQS was involved as a water-soluble analogue of HQ bearing identical coordination mode. Stability constants of deferiprone were also determined by both methods in the present work to validate our experimental setup and data treatment, since the In(III) ‒ deferiprone system was already characterized by Orvig and collaborators. The hydrolysis of In(III) and its interaction with chloride ions were taken into consideration, and stability constants of the hydoxido and chlorido complexes were utilized for our calculations. As a first step, the proton dissociation constants (Ka) were determined for the ligands (Table 1) showing good agreement with the previously published data (see Table 1). The overall stability constants obtained for the octahedral In(III)-deferiprone complexes by both methods (Table 1) are fairly similar to those reported at 150 mM NaCl. […] Complexes with the same stoichiometry were also formed with the O,N-donor containing HQS (Table 1). […] Stability constants for the HQ complexes (Table 1) were determined by the deconvolution of UV–vis spectra recorded at various pH values (Fig. 1a), and the computed molar absorbance spectra for the individual ligand and complex species are shown in Fig. 1b. Due to the lack of d-d or charge transfer bands, the molar absorbance spectra of the complexes represent similar λmax values to that of the completely deprotonated form of the ligand; although, the shape of the spectra is different and is quite similar to that was found for the Ga(III) complexes.
The pH-potentiometric measurements for the determination of the proton dissociation constants of the ligands (HQS, maltol, deferiprone) and the overall stability constants of their In(III) complexes were carried out at 25.0 ± 0.1 °C in water at an ionic strength of 0.20 M (KCl, Sigma-Aldrich). The titrations were performed with a carbonate-free KOH solution of known concentration (0.20 M). An Orion 710A pH-meter equipped with a Metrohm combined electrode (type 6.0234.100) and a Metrohm 665 Dosimat burette were used for the pH-potentiometric measurements. […] The average water ionization constant, pKw, is 13.76 ± 0.01, which corresponds well to literature data. The reproducibility of the titration points included in the calculations was within 0.005 pH units. The pH-potentiometric titrations were performed in the pH range 2.0–11.5. The initial volume of the samples was 10.0 mL, and the ligand concentration was 3 mM and metal ion-to-ligand ratios of 1:1 to 1:4 were used. The fitting of the titration curves was less than 0.01 mL. (The fitting parameter is the average difference between the experimental and calculated titration curves expressed in the volume of the titrant.) Samples were deoxygenated by bubbling purified argon through them for ca. 10 min prior to the measurements. The proton dissociation constants of the ligands, the stoichiometry and the overall stability constants of the complexes were determined with the computer program HYPERQUAD [60]. Overall stability constants of the complexes (β(MpLqHr)) is defined for the general equilibrium pM + qL + rH ⇌ MpLqHr as β (MpLqHr) = [MpLqHr]/[M]^p[L]^q[H]^r where M denotes the metal ion and L the completely deprotonated ligand. Hydrolysis constants for In(III) and stability constants for the In(III)-chlorido complexes (Table 1) are taken from references. The calculations were always made from the experimental titration data measured in the absence of any precipitate in the solution.

Series [2] can be described thus: UV-vis spectrophotometric titrations: proton dissociation constants of the ligands and overall stability constants of their In(III) complexes. In kind it is physicochemical. The settings on record: T = 25.0 °C, I = 0.20 M (KCl); for logβ [InL2] / logβ [InL3] / logβ [InL]: In(III) complex of the ligand L; for pKa: water. How it is done: as §1
Proton dissociation of the ligands (HQ, HQS, maltol, deferiprone) and overall stability constants and the individual spectra of their complexes were calculated with the computer program PSEQUAD [43]. The spectrophotometric titrations were performed on samples of the ligands with or without In(III); the concentration of the ligands was 0.10 mM, and the metal-to-ligand ratios were 1:1, 1:2, 1:3 and 1:4 over the pH range used in pH-potentiometric measurements at 25.0 ± 0.1 °C at an ionic strength of 0.20 M (KCl).

Series [3] in a line: pM* / pM values computed at pH 7.4 from stability constants. In kind it is physicochemical. The note with it: for pIn (pM = –log[M(III)]): Table S1, does not account for hydrolysis of the metal ion; for pGa* (−log([M] + [M(OH)(1–4)])): pH 7.4, 1 μM Ga(III), computed from stability constants of Ref. 27 (deferiprone) or Ref. 29 (maltol, HQS, HQ); for pGa* (−log([M] + [M(OH)(1–4)])) / pIn* (−log([M] + [M(OH)(1–4)])): 10 μM ligand; for pIn* (−log([M] + [M(OH)(1–4)])): pH 7.4, 1 μM In(III). How it is done: To compare the In(III) binding ability of the studied four ligands, pIn* (= negative decadic logarithm of the equilibrium concentration of the unbound metal species) values were calculated at pH 7.4 using the determined stability constants (Table 1).
Table S1. Calculated pM values for the studied In(III) complexes and their Ga analogues,
a Computed on the basis of stability constants taken from Ref. [27]. b Computed on the basis of stability
constants taken from Ref. [29] […]

A further series has as its target T1, apoTf (Homo sapiens, UniProt P02787).
T1 construct: purchased Sigma-Aldrich T2036
The series is described as follows: Interaction with (apo)Tf: ligand displacement and binding of the intact complex (UV-vis, fluorescence, ultrafiltration). The settings on record: UV–vis and fluorescence, pH 7.40. How it is done: Therefore, UV–vis and fluorescence emission spectra of InQ3 were recorded in the presence of increasing amounts of apoTf (Fig. 5a, b). After a short initial phase, the absorbance band of InQ3 is reduced gradually by the addition of the protein, while the development of the new band at lower wavelengths (at ca. 310 nm) refers to the liberation of HQ. Namely, there is a competition for In(III) ion between the ligand and the iron-binding sites of apoTf. Absorbance values depicted at 370 nm and 310 nm (Fig. 5c) saturate roughly to the corresponding values of the free ligand and outline a sigmoidal shape. Fluorescence intensity of the same sample set (Fig. 5b, d) was enhanced and moderately blue shifted (from λmax = 540 nm to 532 nm) until the addition of ca. 0.2 equiv. apoTf. […] Then, by the addition of more apoTf, intensities decreased and λmax shifted further to shorter wavelengths (527 nm). […] Based on this and the results of apoTf quenching (vide supra) protein binding of the non-dissociated complex is presumed. This is further supported by fluorescence lifetime measurements; where new lifetime components τ3 = 4.7 ± 0.2 ns and τ4 = 13.8 ± 0.4 ns appeared for InQ3 in the presence of 0.1 – 0.3 equiv. apoTf (after 1 min waiting time). […] Here, the sigmoid shape of the UV–vis absorbance was seen again (Fig. S5) and the shifted inflection point in comparison to the titration with apoTf underlines the lower In(III) binding capacity of Tf. […]
In the case of InD3, the absorbance bands of the metal complex and apoTf overlap in great extent, however, spectra can be deconvoluted to the spectra of InD3, deferiprone and apoTf (see Fig S6 for details), and molar fractions of the respective species can be calculated (Fig. 6). Ultrafiltration experiments were carried out as well for the InD3 – apoTf system and the non-protein bound LMM fractions were analyzed by UV–vis spectrophotometry (Fig. 6). […] The complex dissociated in line with the addition of apoTf and a practically quantitative displacement of deferiprone seems to take place by the addition of ca. 0.5 equiv. apoTf. […]

Series [4] deals with T2, apo-transferrin (apoTf) (Homo sapiens, UniProt P02787).
T2 construct: purchased Sigma-Aldrich T2036
The series is described as follows: Kinetics of the reaction with apoTf followed by UV-vis spectrophotometry. In kind it is binding. The note with it: pH 7.40 (InCl3: 2 equiv.). How it is done:
Firstly, the kinetics of the reaction between apoTf and InCl3 and the complexes was studied by UV–vis spectrophotometry. The reaction of 2 equiv. […] At the same time Harris et al. have observed slow equilibration with InCl3, that was accelerated (to 6 h) in the presence of NTA [18]. In the case of InQ3 and InD3, the progress of apoTf binding could be followed through the ligand bands of the complexes. […] The Ga(III)-analogue GaQ3 interacted within 1 h with apoTf under similar conditions.
For (apo)Tf containing samples, complex concentrations were 20 μM and 0–2.5 equiv. protein was added. Reference spectra for the complexes, ligands and protein were recorded as well. Samples prepared with blood serum contained three-fold diluted serum and 10 μM metal complexes. UV–vis spectra presented in this paper for complexes InD3 or InQ3 are subtracted by the spectrum of reference protein (HSA (apo)Tf or serum) sample in all cases in favour of the better interpretation of the results.

Series [5] concerns the target T2, apo-transferrin (apoTf). The settings on record: in the presence of NTA; cited from earlier work.
Details of series [6]: method as in PMID 25398250. The settings on record: same LMM competitors in tenfold excess, investigated separately; cited from earlier work.
Series [7] has as its target T3, human serum albumin (HSA) (Homo sapiens, UniProt P02768).
T3 construct: purchased Sigma-Aldrich A8763
The arrangement: method as in PMID 25398250. The note with it: cited from earlier work.

SMILES strings stand for the structures. Marks after values point to notes of the source that are not given here.

Broadly, the pKa is the negative logarithm of the acid dissociation constant.

T2 sequence (P02787 20-698): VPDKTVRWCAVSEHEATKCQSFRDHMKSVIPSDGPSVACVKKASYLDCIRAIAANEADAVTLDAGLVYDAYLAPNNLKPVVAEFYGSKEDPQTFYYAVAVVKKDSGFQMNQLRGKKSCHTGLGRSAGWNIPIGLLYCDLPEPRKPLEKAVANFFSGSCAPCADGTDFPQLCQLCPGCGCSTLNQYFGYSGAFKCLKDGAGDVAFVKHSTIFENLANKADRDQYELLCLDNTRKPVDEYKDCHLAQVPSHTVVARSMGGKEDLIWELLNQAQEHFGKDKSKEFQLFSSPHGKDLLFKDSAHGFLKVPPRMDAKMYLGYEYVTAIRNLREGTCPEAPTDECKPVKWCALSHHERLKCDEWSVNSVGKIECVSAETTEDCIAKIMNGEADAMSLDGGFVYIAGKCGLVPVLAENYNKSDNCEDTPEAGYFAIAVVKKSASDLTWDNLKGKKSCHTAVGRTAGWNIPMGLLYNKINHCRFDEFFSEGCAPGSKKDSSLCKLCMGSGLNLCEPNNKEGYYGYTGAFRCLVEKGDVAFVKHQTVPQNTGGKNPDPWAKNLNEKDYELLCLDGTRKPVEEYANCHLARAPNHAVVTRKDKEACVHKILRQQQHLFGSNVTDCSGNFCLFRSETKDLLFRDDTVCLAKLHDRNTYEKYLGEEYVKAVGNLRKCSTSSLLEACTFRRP
T3 sequence (P02768 25-609): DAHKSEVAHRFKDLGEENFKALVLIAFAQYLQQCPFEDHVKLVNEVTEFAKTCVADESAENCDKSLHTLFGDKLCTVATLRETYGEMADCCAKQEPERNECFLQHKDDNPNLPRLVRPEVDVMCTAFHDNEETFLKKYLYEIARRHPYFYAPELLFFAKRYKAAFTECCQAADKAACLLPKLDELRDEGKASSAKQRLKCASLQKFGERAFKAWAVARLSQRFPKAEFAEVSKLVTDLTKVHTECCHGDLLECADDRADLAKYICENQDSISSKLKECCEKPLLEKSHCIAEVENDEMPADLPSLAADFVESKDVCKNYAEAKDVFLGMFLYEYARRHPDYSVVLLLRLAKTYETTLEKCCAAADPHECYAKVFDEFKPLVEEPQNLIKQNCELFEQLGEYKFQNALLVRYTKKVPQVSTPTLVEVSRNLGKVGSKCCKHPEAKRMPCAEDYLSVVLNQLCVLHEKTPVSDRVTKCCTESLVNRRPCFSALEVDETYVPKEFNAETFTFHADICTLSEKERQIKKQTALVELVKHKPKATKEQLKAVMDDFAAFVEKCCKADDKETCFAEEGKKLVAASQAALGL
T1 sequence (P02787 20-698): as the sequence (P02787 20-698) above

For `Cc1c(O)c(=O)ccn1C` [Deferiprone, 3-Hydroxy-1,2-dimethylpyridin-4(1H)-one], in series [1], the “logβ [InL2]” value is given as 23.50 ± 0.06^ h, the “logβ [InL3]” value was 32.66 ± 0.08^ h and the “logβ [InL]” value was 13.67 ± 0.04^ h. For the same compound, the pKa in series [1] (read-out: pKa (H2L)) is 3.66 ± 0.01. Also, the pKa in series [1] (read-out: pKa (HL)) stood at 9.72 ± 0.01. In addition, in series [2], the “logβ [InL2]” value was 23.88 ± 0.06, the “logβ [InL3]” value is listed as 33.45 ± 0.03 and the “logβ [InL]” value is 13.72 ± 0.03. Also, in series [2] (read-out: pKa (H2L)), the pKa was found to be 3.57 ± 0.02. Further, in series [3], the “pIn (pM = –log[M(III)])” value amounted to 16.25, the “pGa* (−log([M] + [M(OH)(1–4)]))” value is reported as 8.83^i and the “pIn* (−log([M] + [M(OH)(1–4)]))” value stood at 7.95.
With `Oc1cccc2cccnc12` [HQ, 8-Hydroxyquinoline], in series [2], the “logβ [InL2]” value was 22.87 ± 0.03, the “logβ [InL3]” value is listed as 32.64 ± 0.06 and the “logβ [InL]” value was 13.43 ± 0.06. Further, in series [2] (read-out: pKa (H2L)), the pKa came to 4.9 ± 0.02. Further, the pKa in series [2] (read-out: pKa (HL)) is 9.63 ± 0.02. In series [3], the “pIn (pM = –log[M(III)])” value amounted to 16.48, the “pGa* (−log([M] + [M(OH)(1–4)]))” value is reported as 7.86^j and the “pIn* (−log([M] + [M(OH)(1–4)]))” value is listed as 8.18. The “binding via intermolecular interactions to apoTf (and Tf)” value at apoTf is on record as “can be excluded”.
On to `O=S(=O)(O)c1ccc(O)c2ncccc12` [HQS, 8-Hydroyquinoline-5-sulfonate], for which, in series [1], the “logβ [InL2]” value was found to be 21.31 ± 0.07, the “logβ [InL3]” value was 28.95 ± 0.09 and the “logβ [InL]” value is 12.64 ± 0.05. Moreover, the pKa in series [1] (read-out: pKa (H2L)) amounted to 3.89 ± 0.02. The pKa in series [1] (read-out: pKa (HL)) amounted to 8.46 ± 0.02. Further, in series [2], the “logβ [InL2]” value was 21.18 ± 0.06, the “logβ [InL3]” value is 29.66 ± 0.06 and the “logβ [InL]” value worked out at 12.29 ± 0.06. Further, the pKa in series [2] (read-out: pKa (H2L)) came to 3.7 ± 0.04. The pKa in series [2] (read-out: pKa (HL)) worked out at 8.27 ± 0.04. In series [3], the “pIn (pM = –log[M(III)])” value is listed as 16.23, the “pGa* (−log([M] + [M(OH)(1–4)]))” value is 7.92^j and the “pIn* (−log([M] + [M(OH)(1–4)]))” value was 7.93.
Take `[Cl-].[Cl-].[Cl-].[In+3]` [InCl3, reference compound]: the “time to reach equilibrium in the reaction with apoTf” value on apo-transferrin (apoTf) [4] was “ca. 2 h”. On apo-transferrin (apoTf) [5], the “equilibration time with Tf” value was 6 h.
As for `Cc1occc(=O)c1[O-].Cc1occc(=O)c1[O-].Cc1occc(=O)c1[O-].[Ga+3]` [GaM3, Tris(3-Hydroxy-2-methyl-4H-pyran-4-onato)gallium(III)], in series [6], the “effect of LMM competitors on the complex” value is listed as “practically not affected”. Further, in series [7], the “interaction with HSA” value is “no interaction”.
On to `Cc1occc(=O)c1O` [Maltol, 3-Hydroxy-2-methyl-4H-pyran-4-one], for which, in series [1], the “logβ [InL2]” value was determined as 18.59 ± 0.03, the “logβ [InL3]” value was found to be 24.38 ± 0.05 and the “logβ [InL]” value was found to be 11.03 ± 0.03. For the same compound, the pKa in series [1] (read-out: pKa (HL)) turned out to be 8.47 ± 0.01. In addition, in series [2], the “logβ [InL2]” value stood at 18.78 ± 0.03, the “logβ [InL3]” value is 25.04 ± 0.06 and the “logβ [InL]” value is listed as 10.77 ± 0.03. Also, the pKa in series [2] (read-out: pKa (HL)) came out at 8.39 ± 0.02. In addition, in series [3], the “pIn (pM = –log[M(III)])” value was 14.31, the “pGa* (−log([M] + [M(OH)(1–4)]))” value is recorded as 6.00^j and the “pIn* (−log([M] + [M(OH)(1–4)]))” value is recorded as 6.01.

The values are drawn from paper PMC8960621, “Solution speciation and human serum protein binding of indium(III) complexes of 8-hydroxyquinoline, deferiprone and maltol” (Journal of Biological Inorganic Chemistry, 2022).
